What is called microsomal CLint is the rate of metabolic loss divided by the concentration. A low value points to slow turnover. For orientation: half-life means the time needed for the level to fall by half in the phase considered. A low value points to fast loss.

Structures are written as SMILES.

Data set [1] is described as follows: in vitro. Conditions: human, microsomes.
Data set [2] can be described thus: in vitro. Conditions: human, microsomes. The source holds these as a separate data set.
Data set [3] in a line: in vitro. Conditions: mouse, microsomes.
Data set [4] in a line: in vitro. Particulars: mouse, microsomes. This is another data set of the same source.
The conditions of data set [5]: human, microsomes, 1 µM.
For data set [6] the following is noted: mouse, microsomes, 1 µM.
For data set [7] the following is noted: mouse, microsomes, 1 µM. The source holds these as a separate data set.
The conditions of data set [8]: human, microsomes, 1 h, 1 µM.
A short description of data set [9]: in vitro. Particulars: human, microsomes. This is another data set of the same source.
Data set [10] in a line: in vitro. Conditions: human, microsomes. This is another data set of the same source.
Data set [11] in a line: in vitro. Particulars: human, microsomes. This is another data set of the same source.
Data set [12] can be described thus: in vitro. Particulars: mouse, microsomes. This is another data set of the same source.
A short description of data set [13]: in vitro. Particulars: mouse, microsomes. This is another data set of the same source.
Data set [14] in a line: in vitro. Conditions: mouse, microsomes. This is another data set of the same source.
The nature of data set [15]: Half life in mouse plasma at 5 uM. Format: ADME, cell-free.
A short description of data set [16]: Metabolic stability in mouse plasma assessed as compound remaining at 5 uM. Format: ADME, cell-free. Conditions: read-out: Stability.

For `CN(c1ccc(F)cc1)S(=O)(=O)c1cccc(C(=O)Nc2ccc(C#N)cc2)c1`, the remaining at 1 µM in data set [1] was 16%.

As for `CN(c1ccc(Cl)cc1)S(=O)(=O)c1cccc(C(=O)Nc2ccc(S(C)(=O)=O)cc2)c1`, the remaining at 1 µM in [1] came out at 2%; in data set [2], 112%; in [3] it was 4%; in [4], 100%.

For the compound `CN(c1ccc(Cl)cc1)S(=O)(=O)c1cccc(C(=O)Nc2ccc(C#N)cn2)c1`, the remaining at 1 µM was 2% in data set [1], 91% in data set [2], 1% in [3] and 96% in [4].

Regarding `COc1ccc(N(C)S(=O)(=O)c2cccc(C(=O)Nc3ccc(C#N)cc3)c2)cc1`, the remaining at 1 µM in [1] was found to be 2%; in data set [2], 106%; in data set [3], 2%; in [4] it was 90%.

As for `CC(=O)c1ccc(N(C)S(=O)(=O)c2cccc(C(=O)Nc3ccc(Cl)cc3)c2)cc1`, the remaining at 1 µM in data set [1] came out at 12%; in [3], 0%; in data set [4], 108%.

In the case of `CC(=O)c1ccc(N(C)S(=O)(=O)c2cccc(C(=O)Nc3ccc(Cl)cn3)c2)cc1`, the remaining at 1 µM was found to be 12% in data set [1], 82% in data set [2], 0% in data set [3] and 91% in [4].

`CN(c1ccc(S(C)(=O)=O)cc1)S(=O)(=O)c1cccc(NC(=O)c2ccc(Br)cc2)c1`: the t1/2 in [5] was 75.7 min; in data set [7] it was 1.7 min. The same compound registered a CL in [6] of 136 µL/min/mg. Also, in [8], the Stability is 0.9%. Also, the values for the microsomal CLint at 1 µM in data set [9], in data set [11] and in data set [12] were 512 µL/min/mg, 31 µL/min/mg and 945 µL/min/mg, respectively. For the same compound, the half-life at 1 µM in data set [10] turned out to be 4.5 min; in data set [13] it was 2.45 min. Further, in [14], the remaining at 1 h, 1 µM was 1.5%.

The compound `CC(C)[N+](C)(CCOC(=O)C1c2ccccc2Oc2ccccc21)C(C)C` [PROPANTHELINE] came in with a half-life at 5 µM in data set [15] of 18 min. Besides, the remaining at 5 µM in [16] came to 3.4%.

Values taken from ChEMBL document CHEMBL3232865, “Development and characterization of 3-(benzylsulfonamido)benzamides as potent and selective SIRT2 inhibitors” (Eur J Med Chem, 2014).
